Source: ChEMBL document CHEMBL1275409, “Antimicrobial-resistant pathogens in intensive care units in Canada: results of the Canadian National Intensive Care Unit (CAN-ICU) study, 2005-2006” (2008)

Assays:
Type in all cases: functional
Streptococcus pneumoniae [1] = assay: Antimicrobial activity against penicillin-resistant Streptococcus pneumoniae isolated from ICU patient wound assessed as resistant isolates by broth microdilution method
Enterococcus sp. [2] = assay: Antimicrobial activity against vancomycin-resistant Enterococcus sp. assessed as resistant isolates by broth microdilution method
Escherichia coli [3] = assay: Antimicrobial activity against CTX-M ESBL producing Escherichia coli isolated from ICU patient urine assessed as resistant isolates by broth microdilution method
[4] = test system: Staphylococcus epidermidis; assay: Antimicrobial activity against methicillin-resistant Staphylococcus epidermidis isolated from ICU patient urine assessed as resistant isolates by broth microdilution method
Escherichia coli [5] = assay: Antimicrobial activity against CTX-M ESBL producing Escherichia coli isolated from ICU patient wound assessed as resistant isolates by broth microdilution method
Enterococcus sp. [6] = assay: Antimicrobial activity against vancomycin-resistant Enterococcus sp. isolated from ICU patient blood assessed as resistant isolates by broth microdilution method
Enterococcus sp. [7] = assay: Antimicrobial activity against vancomycin-resistant Enterococcus sp. isolated from ICU patient urine assessed as resistant isolates by broth microdilution method
Haemophilus influenzae [8] = assay: Antimicrobial activity against Haemophilus influenzae isolated from ICU patient respiratory tract assessed as resistant isolates by broth microdilution method
Pseudomonas aeruginosa [9] = assay: Antimicrobial activity against carbapenem-resistant Pseudomonas aeruginosa isolated from ICU patient wound assessed as resistant isolates by broth microdilution method
Staphylococcus aureus [10] = assay: Antimicrobial activity against methicillin-susceptible Staphylococcus aureus isolated from ICU patient blood assessed as resistant isolates by broth microdilution method
[11] = test system: Staphylococcus epidermidis; assay: Antimicrobial activity against methicillin-susceptible Staphylococcus epidermidis assessed as resistant isolates by broth microdilution method
[12] = test system: Staphylococcus epidermidis; assay: Antimicrobial activity against methicillin-susceptible Staphylococcus epidermidis isolated from ICU patient wound assessed as resistant isolates by broth microdilution method
Klebsiella pneumoniae [13] = assay: Antimicrobial activity against ESBL producing Klebsiella pneumoniae isolated from ICU patient urine assessed as resistant isolates by broth microdilution method
Staphylococcus aureus [14] = assay: Antimicrobial activity against methicillin-resistant Staphylococcus aureus isolated from ICU patient urine assessed as resistant isolates by broth microdilution method
Klebsiella pneumoniae [15] = assay: Antimicrobial activity against ESBL producing Klebsiella pneumoniae isolated from ICU patient wound assessed as resistant isolates by broth microdilution method
[16] = test system: Staphylococcus epidermidis; assay: Antimicrobial activity against methicillin-susceptible Staphylococcus epidermidis isolated from ICU patient blood assessed as resistant isolates by broth microdilution method
Escherichia coli [17] = assay: Antimicrobial activity against CTX-M ESBL producing Escherichia coli isolated from ICU patient respiratory tract assessed as resistant isolates by broth microdilution method
Staphylococcus aureus [18] = assay: Antimicrobial activity against methicillin-susceptible Staphylococcus aureus isolated from ICU patient urine assessed as resistant isolates by broth microdilution method
Klebsiella pneumoniae [19] = assay: Antimicrobial activity against ESBL producing Klebsiella pneumoniae isolated from ICU patient respiratory tract assessed as resistant isolates by broth microdilution method
Staphylococcus aureus [20] = assay: Antimicrobial activity against methicillin-resistant Staphylococcus aureus isolated from ICU patient wound assessed as resistant isolates by broth microdilution method
Escherichia coli [21] = assay: Antimicrobial activity against CTX-M ESBL producing Escherichia coli isolated from ICU patient blood assessed as resistant isolates by broth microdilution method
Staphylococcus aureus [22] = assay: Antimicrobial activity against methicillin-susceptible Staphylococcus aureus isolated from ICU patient wound assessed as resistant isolates by broth microdilution method
Pseudomonas aeruginosa [23] = assay: Antimicrobial activity against carbapenem-resistant Pseudomonas aeruginosa assessed as resistant isolates by broth microdilution method
[24] = test system: Staphylococcus epidermidis; assay: Antimicrobial activity against methicillin-susceptible Staphylococcus epidermidis isolated from ICU patient urine assessed as resistant isolates by broth microdilution method
Enterococcus sp. [25] = assay: Antimicrobial activity against vancomycin-resistant Enterococcus sp. isolated from ICU patient wound assessed as resistant isolates by broth microdilution method
[26] = test system: Staphylococcus epidermidis; assay: Antimicrobial activity against methicillin-resistant Staphylococcus epidermidis isolated from ICU patient wound assessed as resistant isolates by broth microdilution method
Haemophilus influenzae [27] = assay: Antimicrobial activity against Haemophilus influenzae isolated from ICU patient blood assessed as resistant isolates by broth microdilution method
Enterococcus sp. [28] = assay: Antimicrobial activity against vancomycin-resistant Enterococcus sp. isolated from ICU patient respiratory tract assessed as resistant isolates by broth microdilution method
Staphylococcus aureus [29] = assay: Antimicrobial activity against methicillin-susceptible Staphylococcus aureus isolated from ICU patient respiratory tract assessed as resistant isolates by broth microdilution method
Klebsiella pneumoniae [30] = assay: Antimicrobial activity against ESBL producing Klebsiella pneumoniae isolated from ICU patient blood assessed as resistant isolates by broth microdilution method
Escherichia coli [31] = assay: Antimicrobial activity against CTX-M ESBL producing Escherichia coli assessed as resistant isolates by broth microdilution method
[32] = test system: Staphylococcus epidermidis; assay: Antimicrobial activity against methicillin-resistant Staphylococcus epidermidis isolated from ICU patient blood assessed as resistant isolates by broth microdilution method
Haemophilus influenzae [33] = assay: Antimicrobial activity against Haemophilus influenzae assessed as resistant isolates by broth microdilution method
Streptococcus pneumoniae [34] = assay: Antimicrobial activity against penicillin-resistant Streptococcus pneumoniae assessed as resistant isolates by broth microdilution method
Streptococcus pneumoniae [35] = assay: Antimicrobial activity against penicillin-resistant Streptococcus pneumoniae isolated from ICU patient respiratory tract assessed as resistant isolates by broth microdilution method
Pseudomonas aeruginosa [36] = assay: Antimicrobial activity against carbapenem-resistant Pseudomonas aeruginosa isolated from ICU patient urine assessed as resistant isolates by broth microdilution method
Streptococcus pneumoniae [37] = assay: Antimicrobial activity against penicillin-resistant Streptococcus pneumoniae isolated from ICU patient blood assessed as resistant isolates by broth microdilution method
Pseudomonas aeruginosa [38] = assay: Antimicrobial activity against carbapenem-resistant Pseudomonas aeruginosa isolated from ICU patient respiratory tract assessed as resistant isolates by broth microdilution method
[39] = test system: Staphylococcus epidermidis; assay: Antimicrobial activity against methicillin-susceptible Staphylococcus epidermidis isolated from ICU patient respiratory tract assessed as resistant isolates by broth microdilution method
Pseudomonas aeruginosa [40] = assay: Antimicrobial activity against carbapenem-resistant Pseudomonas aeruginosa isolated from ICU patient blood assessed as resistant isolates by broth microdilution method
Haemophilus influenzae [41] = assay: Antimicrobial activity against Haemophilus influenzae isolated from ICU patient wound assessed as resistant isolates by broth microdilution method
Klebsiella pneumoniae [42] = assay: Antimicrobial activity against ESBL producing Klebsiella pneumoniae assessed as resistant isolates by broth microdilution method
[43] = test system: Staphylococcus epidermidis; assay: Antimicrobial activity against methicillin-resistant Staphylococcus epidermidis assessed as resistant isolates by broth microdilution method
Enterobacter cloacae [44] = assay: Antimicrobial activity against carbapenem-resistant Enterobacter cloacae isolated from ICU patient urine assessed as resistant isolates by broth microdilution method
Enterobacter cloacae [45] = assay: Antimicrobial activity against carbapenem-resistant Enterobacter cloacae assessed as resistant isolates by broth microdilution method
Enterobacter cloacae [46] = assay: Antimicrobial activity against carbapenem-resistant Enterobacter cloacae isolated from ICU patient wound assessed as resistant isolates by broth microdilution method
Staphylococcus aureus [47] = assay: Antimicrobial activity against methicillin-susceptible Staphylococcus aureus assessed as resistant isolates by broth microdilution method
Enterobacter cloacae [48] = assay: Antimicrobial activity against carbapenem-resistant Enterobacter cloacae isolated from ICU patient respiratory tract assessed as resistant isolates by broth microdilution method
Staphylococcus aureus [49] = assay: Antimicrobial activity against methicillin-resistant Staphylococcus aureus assessed as resistant isolates by broth microdilution method
Staphylococcus aureus [50] = assay: Antimicrobial activity against methicillin-resistant Staphylococcus aureus isolated from ICU patient blood assessed as resistant isolates by broth microdilution method
Enterobacter cloacae [51] = assay: Antimicrobial activity against carbapenem-resistant Enterobacter cloacae isolated from ICU patient blood assessed as resistant isolates by broth microdilution method
Staphylococcus aureus [52] = assay: Antimicrobial activity against methicillin-resistant Staphylococcus aureus isolated from ICU patient respiratory tract assessed as resistant isolates by broth microdilution method

For `O=C(O)c1cn(C2CC2)c2cc(N3CCNCC3)c(F)cc2c1=O` [CIPROFLOXACIN], the Activity (Streptococcus pneumoniae [1]) was 0%, the Activity (Enterococcus sp. [2]) was 53.4% and the Activity (Escherichia coli [3]) was 19.8%. It also gave an Activity [4] of 100%, an Activity (Escherichia coli [5]) of 24.1% and an Activity (Enterococcus sp. [6]) of 58.1%. For the same molecule, the Activity (Enterococcus sp. [7]) was 54.7%, the Activity (Haemophilus influenzae [8]) was 0% and the Activity (Pseudomonas aeruginosa [9]) was 11.5%. It also gave an Activity (Staphylococcus aureus [10]) of 6.9%, an Activity [11] of 54.7% and an Activity [12] of 70.8%. For the same molecule, the Activity (Klebsiella pneumoniae [13]) was 37.8%, the Activity (Staphylococcus aureus [14]) was 100% and the Activity (Klebsiella pneumoniae [15]) was 28.3%. For the same molecule, the Activity [16] was 44.6%, the Activity (Escherichia coli [17]) was 21.3% and the Activity (Staphylococcus aureus [18]) was 20%. For the same molecule, the Activity (Klebsiella pneumoniae [19]) was 20.8%, the Activity (Staphylococcus aureus [20]) was 92.6% and the Activity (Escherichia coli [21]) was 23.3%. The Activity (Staphylococcus aureus [22]) was 8%, the Activity (Pseudomonas aeruginosa [23]) was 4% and the Activity [24] was 80%. The Activity (Enterococcus sp. [25]) was 50%, the Activity [26] was 100% and the Activity (Haemophilus influenzae [27]) was 0%. It also gave an Activity (Enterococcus sp. [28]) of 46.7%, an Activity (Staphylococcus aureus [29]) of 7.5% and an Activity (Klebsiella pneumoniae [30]) of 24.2%. The Activity (Escherichia coli [31]) was 21.1%, the Activity [32] was 100% and the Activity (Haemophilus influenzae [33]) was 0%. The Activity (Streptococcus pneumoniae [34]) was 2.1%, the Activity (Streptococcus pneumoniae [35]) was 2.6% and the Activity (Pseudomonas aeruginosa [36]) was 0%. It also gave an Activity (Streptococcus pneumoniae [37]) of 0%, an Activity (Pseudomonas aeruginosa [38]) of 4.1% and an Activity [39] of 100%. For the same molecule, the Activity (Pseudomonas aeruginosa [40]) was 3.9%, the Activity (Haemophilus influenzae [41]) was 0% and the Activity (Klebsiella pneumoniae [42]) was 23.8%. For the same molecule, the Activity [43] was 100%.

With `CN(C)c1cc(NC(=O)CNC(C)(C)C)c(O)c2c1C[C@H]1C[C@H]3[C@H](N(C)C)C(O)=C(C(N)=O)C(=O)[C@@]3(O)C(O)=C1C2=O` [TIGECYCLINE] the Activity (Enterobacter cloacae [44]) was 6.3%, the Activity (Enterococcus sp. [2]) was 0% and the Activity (Escherichia coli [3]) was 0%. It also gave an Activity (Escherichia coli [5]) of 0%, an Activity (Enterococcus sp. [6]) of 0% and an Activity (Enterobacter cloacae [45]) of 0.6%. The Activity (Enterococcus sp. [7]) was 0%, the Activity (Pseudomonas aeruginosa [9]) was 3.9% and the Activity (Staphylococcus aureus [10]) was 0%. It also gave an Activity (Staphylococcus aureus [14]) of 0%, an Activity (Enterobacter cloacae [46]) of 0% and an Activity (Escherichia coli [17]) of 0%. The Activity (Staphylococcus aureus [18]) was 0%, the Activity (Staphylococcus aureus [47]) was 0% and the Activity (Enterobacter cloacae [48]) was 0%. The Activity (Staphylococcus aureus [20]) was 0%, the Activity (Escherichia coli [21]) was 0% and the Activity (Staphylococcus aureus [22]) was 0%. For the same molecule, the Activity (Pseudomonas aeruginosa [23]) was 0.4%, the Activity (Staphylococcus aureus [49]) was 0% and the Activity (Enterococcus sp. [25]) was 0%. For the same molecule, the Activity (Enterococcus sp. [28]) was 0%, the Activity (Staphylococcus aureus [29]) was 0% and the Activity (Escherichia coli [31]) was 0%. The Activity (Pseudomonas aeruginosa [36]) was 2%, the Activity (Staphylococcus aureus [50]) was 0% and the Activity (Pseudomonas aeruginosa [38]) was 0%. For the same molecule, the Activity (Enterobacter cloacae [51]) was 0%, the Activity (Staphylococcus aureus [52]) was 0% and the Activity (Pseudomonas aeruginosa [40]) was 0%.

With GENTAMICIN the Activity (Enterobacter cloacae [44]) was 6.3%, the Activity (Escherichia coli [3]) was 1.1% and the Activity (Escherichia coli [5]) was 6.9%. For the same molecule, the Activity (Enterobacter cloacae [45]) was 3%, the Activity (Pseudomonas aeruginosa [9]) was 0% and the Activity (Klebsiella pneumoniae [13]) was 22.2%. The Activity (Klebsiella pneumoniae [15]) was 18.9%, the Activity (Enterobacter cloacae [46]) was 0% and the Activity (Escherichia coli [17]) was 3.3%. For the same molecule, the Activity (Enterobacter cloacae [48]) was 1.9%, the Activity (Klebsiella pneumoniae [19]) was 14.2% and the Activity (Escherichia coli [21]) was 6.9%. For the same molecule, the Activity (Pseudomonas aeruginosa [23]) was 0%, the Activity (Klebsiella pneumoniae [30]) was 9.1% and the Activity (Escherichia coli [31]) was 3%. It also gave an Activity (Pseudomonas aeruginosa [36]) of 0%, an Activity (Pseudomonas aeruginosa [38]) of 0% and an Activity (Enterobacter cloacae [51]) of 8.3%. The Activity (Pseudomonas aeruginosa [40]) was 0% and the Activity (Klebsiella pneumoniae [42]) was 15.2%.
